IC50 cell viability data for 38 molecules are collected here from the supplement of paper PMC12137928.

Structures are written as SMILES. Counter-ions that a name gives are not always drawn.

The assay deals with HCT116. As to conditions: 72 h. The method, boiled down:
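Each well of the 1536-well plates received 250 HCT116 cells, which attached over 5 h. Luminescence was measured with CellTiter-Glo, scaled with vehicle as 0% and positive control as -100%, and pattern-corrected. A four-parameter Hill fit yielded IC50 and maximal efficacy.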

`NCCCC[C@H](NC(=O)[C@@H]1CCCN1C(=O)[C@@H]1CSSC[C@H](NC(=O)CNC(=O)CNC(=O)CN)C(=O)N[C@@H](Cc2ccc(O)cc2)C(=O)N[C@@H](Cc2ccccc2)C(=O)N[C@@H](CCC(N)=O)C(=O)N[C@@H](CC(N)=O)C(=O)N1)C(=O)NCC(N)=O` [Terlipressin]: the IC50 cell viability is, setting by setting: (ICRF193 0 nM) more than 45.8 µM; (ICRF193 200 nM) more than 45.8 µM.

Turning to `OCC(O)C(O)C(O)CO` (stereo unspecified) [ARABITOL(D)], the IC50 cell viability (ICRF193 0 nM) was more than 45.8 µM and the IC50 cell viability (ICRF193 200 nM) was more than 45.8 µM.

In the case of `CC(C)(C)NCC(O)c1ccccc1Cl` (stereo unspecified) [Tulobuterol hydrochloride], the IC50 cell viability runs as follows: (ICRF193 0 nM) more than 45.8 µM; (ICRF193 200 nM) more than 45.8 µM.

As for `CCOC(=O)[C@H](CCc1ccccc1)N[C@@H](C)C(=O)N1Cc2cc(OC)c(OC)cc2C[C@H]1C(=O)O` [Moexipril hydrochloride], the IC50 cell viability by setting is: (ICRF193 0 nM) more than 45.8 µM; (ICRF193 200 nM) more than 45.8 µM.

With `CCOc1ccc(/N=C(\C)Nc2ccc(OCC)cc2)cc1` [Phenacaine hydrochloride], the IC50 cell viability is, setting by setting: (ICRF193 0 nM) more than 45.8 µM; (ICRF193 200 nM) more than 45.8 µM.

For `NC(=O)[C@H]1O[C@@H](O)[C@H](O)[C@@H](O)[C@@H]1O` [Glucuronamide], the IC50 cell viability (ICRF193 0 nM) is more than 45.8 µM and the IC50 cell viability (ICRF193 200 nM) was more than 45.8 µM.

Consider `CCC(=O)OCC(=O)[C@@]1(OC(=O)CC)[C@H](C)C[C@H]2[C@H]3[C@H]([C@@H](O)C[C@@]21C)[C@@]1(C)C=CC(=O)C=C1C[C@H]3Cl` [Alclometasone dipropionate], for which the IC50 cell viability is, setting by setting: (ICRF193 0 nM) more than 45.8 µM; (ICRF193 200 nM) more than 45.8 µM.

Regarding `NS(=O)(=O)c1cc2c(cc1Cl)NC(C(Cl)Cl)NS2(=O)=O` (stereo unspecified) [Trichlormethiazide], the IC50 cell viability was more than 45.8 µM (ICRF193 0 nM) and more than 45.8 µM (ICRF193 200 nM).

Turning to `CC1=C(C(=O)O)N2C(=O)[C@@H](NC(=O)[C@H](N)c3ccc(O)cc3)[C@H]2SC1` [Cefadroxil], the IC50 cell viability runs as follows: (ICRF193 0 nM) more than 45.8 µM; (ICRF193 200 nM) more than 45.8 µM.

In the case of `CCN(CC)CC(=O)Nc1c(C)cccc1C(=O)OC` [Tolycaine], the IC50 cell viability (ICRF193 0 nM) was more than 45.8 µM and the IC50 cell viability (ICRF193 200 nM) was more than 45.8 µM.

Turning to `O=C(Nc1ccccc1)OCC(CN1CCCCC1)OC(=O)Nc1ccccc1` (stereo unspecified) [Diperodon hydrochloride], the IC50 cell viability is, setting by setting: (ICRF193 0 nM) more than 45.8 µM; (ICRF193 200 nM) more than 45.8 µM.

On to `CC([C@H](O)c1ccccc1)N(C)C` (stereo partly drawn) [N-METHYL (-)EPHEDRINE [1R,2S]], for which the IC50 cell viability was more than 45.8 µM (ICRF193 0 nM) and more than 45.8 µM (ICRF193 200 nM).

Turning to `CN1[C@@H]2C[C@@H](OC(=O)[C@H](CO)c3ccccc3)C[C@H]1[C@@H]1O[C@@H]12` [Scopolamine hydrobromide], the IC50 cell viability by setting is: (ICRF193 0 nM) more than 45.8 µM; (ICRF193 200 nM) more than 45.8 µM.

For `CC(C)(CO)[C@@H](O)C(=O)NCCC(=O)O` [Pantothenic acid], the IC50 cell viability reads like this: (ICRF193 0 nM) more than 45.8 µM; (ICRF193 200 nM) more than 45.8 µM.

`NCCc1c[nH]cn1` [Histamine dihydrochloride]: the IC50 cell viability was more than 45.8 µM (ICRF193 0 nM) and more than 45.8 µM (ICRF193 200 nM).

In turn, `CCC(=O)O[C@@H]1C=C2CC[C@@H]3[C@H](CC[C@]4(C)[C@@H](OC(=O)CC)CC[C@@H]34)C2CC1` (stereo partly specified) [Bolandiol dipropionate] came in with an IC50 cell viability (ICRF193 0 nM) of more than 45.8 µM and an IC50 cell viability (ICRF193 200 nM) of more than 45.8 µM.

With `N#C[C@@H]1C[C@@H]2C[C@@H]2N1C(=O)[C@@H](N)C12CC3CC(CC(O)(C3)C1)C2` [Saxagliptin], the IC50 cell viability is more than 45.8 µM (ICRF193 0 nM) and more than 45.8 µM (ICRF193 200 nM).

Take `CN(C)CCOC(=O)COc1ccc(Cl)cc1` [Meclofenoxate hydrochloride]: the IC50 cell viability runs as follows: (ICRF193 0 nM) more than 45.8 µM; (ICRF193 200 nM) more than 45.8 µM.

In the case of `O=C1N=C(N2CCOCC2)CN1c1ccc(Cl)cc1` [AWD 131-138], the IC50 cell viability was more than 45.8 µM (ICRF193 0 nM) and more than 45.8 µM (ICRF193 200 nM).

`CC1(C)[C@@H](OC(=O)CCC(=O)O)CC[C@]2(C)[C@H]3C(=O)C=C4[C@@H]5C[C@@](C)(C(=O)O)CC[C@]5(C)CC[C@@]4(C)[C@]3(C)CC[C@@H]12` [Carbenoxolone sodium]: the IC50 cell viability is more than 45.8 µM (ICRF193 0 nM) and more than 45.8 µM (ICRF193 200 nM).

`CCCC(CCC)C(=O)O` [Valproic acid sodium salt]: the IC50 cell viability (ICRF193 0 nM) was more than 45.8 µM and the IC50 cell viability (ICRF193 200 nM) is more than 45.8 µM.

Turning to `Nc1cc(Cl)c(NC2=NCCN2)c(Cl)c1` [p-Aminoclonidine hydrochloride], the IC50 cell viability is more than 45.8 µM (ICRF193 0 nM) and more than 45.8 µM (ICRF193 200 nM).

On to `O=c1[nH]c(=O)c2[nH]c(O)nc2[nH]1` [Sodium urate], for which the IC50 cell viability is, setting by setting: (ICRF193 0 nM) more than 45.8 µM; (ICRF193 200 nM) more than 45.8 µM.

For `COc1ccc2c(c1)c(CC(=O)O)c(C)n2C(=O)c1ccc(Cl)cc1` [Indomethacin], the IC50 cell viability is more than 45.8 µM (ICRF193 0 nM) and more than 45.8 µM (ICRF193 200 nM).

Take `COc1ccc(Cl)cc1C(=O)NCCc1ccc(S(=O)(=O)NC(=O)NC2CCCCC2)cc1` [Glybenclamide]: the IC50 cell viability is, setting by setting: (ICRF193 0 nM) more than 45.8 µM; (ICRF193 200 nM) more than 45.8 µM.

Regarding `CN(C)C(=O)Oc1cccc([N+](C)(C)C)c1` [Neostigmine bromide], the IC50 cell viability is more than 45.8 µM (ICRF193 0 nM) and more than 45.8 µM (ICRF193 200 nM).

Take `CCOC(=O)C1=C(C)NC(C)=C(C(=O)OC)C1c1cccc([N+](=O)[O-])c1` (stereo unspecified) [Nitrendipine]: the IC50 cell viability is, setting by setting: (ICRF193 0 nM) more than 45.8 µM; (ICRF193 200 nM) more than 45.8 µM.

On to `CC(=O)O[C@H]1CC[C@H]2[C@@H]3CCC4=CC(=O)CCC4=C3C=C[C@]12C` [Trenbolone (acetate)], for which the IC50 cell viability by setting is: (ICRF193 0 nM) more than 45.8 µM; (ICRF193 200 nM) more than 45.8 µM.

For `OCc1ccccc1O` [Salicyl alcohol], the IC50 cell viability runs as follows: (ICRF193 0 nM) more than 45.8 µM; (ICRF193 200 nM) more than 45.8 µM.

Consider `NCCC(O)(P(=O)(O)O)P(=O)(O)O` [Pamidronic acid], for which the IC50 cell viability reads like this: (ICRF193 0 nM) more than 45.8 µM; (ICRF193 200 nM) more than 45.8 µM.

Consider `Cc1ccnc(NS(=O)(=O)c2ccc(N)cc2)n1` [Sulfamerazine], for which the IC50 cell viability was more than 45.8 µM (ICRF193 0 nM) and more than 45.8 µM (ICRF193 200 nM).

The molecule `C=C1c2cccc(O)c2C(=O)C2=C(O)[C@]3(O)C(=O)C(C(N)=O)=C(O)[C@@H](N(C)C)[C@@H]3[C@@H](O)[C@H]12` [Methacycline hydrochloride] displayed an IC50 cell viability (ICRF193 0 nM) of more than 45.8 µM and an IC50 cell viability (ICRF193 200 nM) of more than 45.8 µM.

On to `Cc1nnc(SCC2=C(C(=O)O)N3C(=O)[C@@H](NC(=O)Cn4cnnn4)[C@H]3SC2)s1` [Cefazolin], for which the IC50 cell viability is more than 45.8 µM (ICRF193 0 nM) and more than 45.8 µM (ICRF193 200 nM).

In the case of `Cc1cc2cc3c(C)cc(=O)oc3c(C)c2o1` [Trioxsalen], the IC50 cell viability is more than 45.8 µM (ICRF193 0 nM) and more than 45.8 µM (ICRF193 200 nM).

For the molecule `Cc1cc(C(C)(C)C)c(O)c(C)c1CC1=NCCN1` [Oxymetazoline hydrochloride], the IC50 cell viability is, setting by setting: (ICRF193 0 nM) more than 45.8 µM; (ICRF193 200 nM) more than 45.8 µM.

For `CCN1CC(CCN2CCOCC2)C(c2ccccc2)(c2ccccc2)C1=O` (stereo unspecified) [Doxapram hydrochloride], the IC50 cell viability was more than 45.8 µM (ICRF193 0 nM) and more than 45.8 µM (ICRF193 200 nM).

Regarding `CC(C)=CC1C(C(=O)OCc2cccc(Oc3ccccc3)c2)C1(C)C` (stereo unspecified) [Phenothrin], the IC50 cell viability was more than 45.8 µM (ICRF193 0 nM) and more than 45.8 µM (ICRF193 200 nM).

With `OC[C@H]1O[C@@H](OCCc2ccc(O)cc2)[C@H](O)[C@@H](O)[C@@H]1O` [Salidroside], the IC50 cell viability is more than 45.8 µM (ICRF193 0 nM) and more than 45.8 µM (ICRF193 200 nM).
